The values that follow come from PubChem BioAssay AID1259407 (Chemical Carcinogenesis Research Information System (CCRIS), 2018).

Activity calls are given as the source filed them. No rule for the calls is given here.

In this data set the test system is CCRIS mutagenicity, Ames/micronucleus/aberration tests. Kind of data set: CCRIS mutagenicity studies.
Where [1] appears, read: Test System: AMES SALMONELLA TYPHIMURIUM, Strain/Indicator: TA98, Metabolic Activation: NONE, Method: STANDARD PLATE.
The mark [2] stands for this setting: Test System: AMES SALMONELLA TYPHIMURIUM, Strain/Indicator: TA98, Metabolic Activation: RAT, LIVER, S-9, AROCLOR 1254, Method: STANDARD PLATE.
Where [3] appears, read: Test System: AMES SALMONELLA TYPHIMURIUM, Strain/Indicator: TA100, Metabolic Activation: NONE, Method: STANDARD PLATE.
The mark [4] stands for this setting: Test System: AMES SALMONELLA TYPHIMURIUM, Strain/Indicator: TA100, Metabolic Activation: RAT, LIVER, S-9, AROCLOR 1254, Method: STANDARD PLATE.
The mark [5] stands for this setting: Test System: AMES SALMONELLA TYPHIMURIUM, Strain/Indicator: TA98, Metabolic Activation: NONE, Method: PREINCUBATION
Where [6] appears, read: Test System: AMES SALMONELLA TYPHIMURIUM, Strain/Indicator: TA100, Metabolic Activation: NONE, Method: PREINCUBATION
[7] abbreviates: Test System: AMES SALMONELLA TYPHIMURIUM, Strain/Indicator: TA1535, Metabolic Activation: NONE, Method: PREINCUBATION
Setting [8] is: Test System: AMES SALMONELLA TYPHIMURIUM, Strain/Indicator: TA1537, Metabolic Activation: NONE, Method: PREINCUBATION

`c1ccc2c(c1)ccc1c3ccccc3ccc21`: the mutagenic call reads like this: (Test System: AMES SALMONELLA TYPHIMURIUM, Strain/Indicator: TA97, Metabolic Activation: NONE, Method: STANDARD PLATE) “inactive; negative”; (Test System: AMES SALMONELLA TYPHIMURIUM, Strain/Indicator: TA97, Metabolic Activation: RAT, LIVER, S-9, PCB, Method: STANDARD PLATE) “active; positive”; under setting [1], “inactive; negative”; under setting [2], “active; positive”; (Test System: AMES SALMONELLA TYPHIMURIUM, Strain/Indicator: TA98, Metabolic Activation: RAT, LIVER, S-9, PCB, Method: STANDARD PLATE) “active; positive”; under setting [3], “inactive; negative”. Further, the mutagenic call is, setting by setting: (Test System: AMES SALMONELLA TYPHIMURIUM, Strain/Indicator: TA100, Metabolic Activation: POOLED HUMAN LIVER MICROSOMES, Method: PREINCUBATION) “inactive; negative”; (Test System: AMES SALMONELLA TYPHIMURIUM, Strain/Indicator: TA100, Metabolic Activation: RAT, LIVER, MICROSOMES, AROCLOR 1254, Method: STANDARD PLATE) “active; positive”; (Test System: AMES SALMONELLA TYPHIMURIUM, Strain/Indicator: TA100, Metabolic Activation: RAT, LIVER, MICROSOMES, CHRYSENE, Method: STANDARD PLATE) “inactive; negative”; (Test System: AMES SALMONELLA TYPHIMURIUM, Strain/Indicator: TA100, Metabolic Activation: RAT, LIVER, MICROSOMES, Method: STANDARD PLATE) “inactive; negative”; under setting [4], “active; positive”; (Test System: AMES SALMONELLA TYPHIMURIUM, Strain/Indicator: TA100, Metabolic Activation: RAT, LIVER, S-9, PCB, Method: STANDARD PLATE) “active; positive”. Besides, the mutagenic call reads like this: (Test System: AMES SALMONELLA TYPHIMURIUM, Strain/Indicator: TA100, Metabolic Activation: RAT, LIVER, S-9, PHENOBARBITAL AND 5,6-BENZOFLAVONE, Method: PREINCUBATION) “active; positive”; (Test System: CHINESE HAMSTER OVARY, Strain/Indicator: CHO-K1-BH4 (HGPRT)/6-THIOGUANINE, Metabolic Activation: NONE, Method: STANDARD PLATE) “inactive; negative”; (Test System: CHINESE HAMSTER OVARY, Strain/Indicator: CHO-K1-BH4 (HGPRT)/6-THIOGUANINE, Metabolic Activation: RAT, LIVER, S-9, AROCLOR 1254, Method: STANDARD PLATE) “active; positive”; (Test System: CHINESE HAMSTER OVARY, Strain/Indicator: CHO-UV5 (HGPRT)/6-THIOGUANINE, Metabolic Activation: NONE, Method: STANDARD PLATE) “inactive; negative”; (Test System: CHINESE HAMSTER OVARY, Strain/Indicator: CHO-UV5 (HGPRT)/6-THIOGUANINE, Metabolic Activation: RAT, LIVER, S-9, AROCLOR 1254, Method: STANDARD PLATE) “active; positive”; (Test System: LACZ TRANSGENIC MOUSE (MUTATM MOUSE), Strain/Indicator: LACZ MUTANT FREQUENCY, Method: LIVER, SPLEEN, LUNG, KIDNEY, BONE MARROW, COLON HARVESTED 7 D AFTER LAST DOSE, DNA ISOLATED) “active; positive; g:c to t:a transversions in all organs”.

Turning to `O=C(CCl)c1ccccc1`, the mutagenic call runs as follows: (Test System: AMES SALMONELLA TYPHIMURIUM, Strain/Indicator: TA98, Metabolic Activation: HAMSTER, LIVER, S-9, AROCLOR 1254 (10%), Method: PREINCUBATION) “inactive; negative”; (Test System: AMES SALMONELLA TYPHIMURIUM, Strain/Indicator: TA98, Metabolic Activation: NONE) “inactive; negative”; under setting [5], “inactive; negative”; (Test System: AMES SALMONELLA TYPHIMURIUM, Strain/Indicator: TA98, Metabolic Activation: RAT, LIVER, S-9, AROCLOR 1254 (10%), Method: PREINCUBATION) “inactive; negative”; (Test System: AMES SALMONELLA TYPHIMURIUM, Strain/Indicator: TA98, Metabolic Activation: RAT, LIVER, S-9, PHENOBARBITONE AND BETA-NAPHTHOFLAVONE) “inactive; negative”; (Test System: AMES SALMONELLA TYPHIMURIUM, Strain/Indicator: TA100, Metabolic Activation: HAMSTER, LIVER, S-9, AROCLOR 1254 (10%), Method: PREINCUBATION) “inactive; negative”. Besides, the mutagenic call is “inactive; negative” (Test System: AMES SALMONELLA TYPHIMURIUM, Strain/Indicator: TA100, Metabolic Activation: NONE); “inactive; negative” under setting [6]; “inactive; negative” (Test System: AMES SALMONELLA TYPHIMURIUM, Strain/Indicator: TA100, Metabolic Activation: RAT, LIVER, S-9, AROCLOR 1254 (10%), Method: PREINCUBATION); “inactive; negative” (Test System: AMES SALMONELLA TYPHIMURIUM, Strain/Indicator: TA100, Metabolic Activation: RAT, LIVER, S-9, PHENOBARBITONE AND BETA-NAPHTHOFLAVONE); “inactive; negative” (Test System: AMES SALMONELLA TYPHIMURIUM, Strain/Indicator: TA1535, Metabolic Activation: HAMSTER, LIVER, S-9, AROCLOR 1254 (10%), Method: PREINCUBATION); “inactive; negative” under setting [7]. For the same compound, the mutagenic call reads like this: (Test System: AMES SALMONELLA TYPHIMURIUM, Strain/Indicator: TA1535, Metabolic Activation: RAT, LIVER, S-9, AROCLOR 1254 (10%), Method: PREINCUBATION) “inactive; negative”; (Test System: AMES SALMONELLA TYPHIMURIUM, Strain/Indicator: TA1537, Metabolic Activation: HAMSTER, LIVER, S-9, AROCLOR 1254 (10%), Method: PREINCUBATION) “inactive; negative”; under setting [8], “inactive; negative”; (Test System: AMES SALMONELLA TYPHIMURIUM, Strain/Indicator: TA1537, Metabolic Activation: RAT, LIVER, S-9, AROCLOR 1254 (10%), Method: PREINCUBATION) “inactive; negative”; (Test System: AMES SALMONELLA TYPHIMURIUM, Strain/Indicator: TA1538, Metabolic Activation: NONE) “inactive; negative”; (Test System: AMES SALMONELLA TYPHIMURIUM, Strain/Indicator: TA1538, Metabolic Activation: RAT, LIVER, S-9, PHENOBARBITONE AND BETA-NAPHTHOFLAVONE) “inactive; negative”.

Consider `CC(=O)N(O)c1ccccc1`, for which the mutagenic call was “inactive; negative” under setting [1], “inactive; negative” under setting [2], “inactive; negative” under setting [3] and “inactive; negative” under setting [4].

For the compound `O.[Cu].[Cu]`, the mutagenic call reads like this: under setting [5], “inactive; negative”; (Test System: AMES SALMONELLA TYPHIMURIUM, Strain/Indicator: TA98, Metabolic Activation: RAT, LIVER, S-9, KC 500, Method: PREINCUBATION) “inactive; negative”; under setting [6], “inactive; negative”; (Test System: AMES SALMONELLA TYPHIMURIUM, Strain/Indicator: TA100, Metabolic Activation: RAT, LIVER, S-9, KC 500, Method: PREINCUBATION) “inactive; negative”; under setting [7], “inactive; negative”; (Test System: AMES SALMONELLA TYPHIMURIUM, Strain/Indicator: TA1535, Metabolic Activation: RAT, LIVER, S-9, KC 500, Method: PREINCUBATION) “inactive; negative”. Further, the mutagenic call is, setting by setting: under setting [8], “inactive; negative”; (Test System: AMES SALMONELLA TYPHIMURIUM, Strain/Indicator: TA1537, Metabolic Activation: RAT, LIVER, S-9, KC 500, Method: PREINCUBATION) “inactive; negative”; (Test System: AMES SALMONELLA TYPHIMURIUM, Strain/Indicator: TA1538, Metabolic Activation: NONE, Method: PREINCUBATION) “inactive; negative”; (Test System: AMES SALMONELLA TYPHIMURIUM, Strain/Indicator: TA1538, Metabolic Activation: RAT, LIVER, S-9, KC 500, Method: PREINCUBATION) “inactive; negative”; (Test System: E. COLI, Strain/Indicator: WP2 UVRA, Metabolic Activation: NONE, Method: PREINCUBATION) “inactive; negative”; (Test System: E. COLI, Strain/Indicator: WP2 UVRA, Metabolic Activation: RAT, LIVER, S-9, KC 500, Method: PREINCUBATION) “inactive; negative”.
